Data reported in patent publication US11312680B2, “Method for treating a patient having a colon cancer” (King Abdulaziz University, priority 2019, dated 2022).

How the values were obtained:
N87 stomach cancer cells = test: MTT cytotoxicity assay against N87 cells; format: cell-based, human
Description: Cytotoxicity of all the compounds against N87 cells was determined using MTT assay. Briefly, 25,000 cells suspended in 0.1 mL of cell culture media were added in each well of a 96-well plate. After allowing the cells to attach for 24 h, media was aspirated from all the wells, and different concentrations of anticancer compounds in cell culture media were added to the wells in triplicate. Six wells were incubated with drug free media, and used as control. 96 hours after the treatment, 25 μL of MTT solution (5 mg/mL in phosphate saline buffer, pH 7.4) was added to each well, and the plate was incubated for 4.5 hours at 37° C. in the incubator. After incubation, 100 μL of 10% SDS in 0.01 M hydrochloric acid was added to each well, and the plate was incubated overnight at 37° C. The next day absorbance was determined in each well at 590 nm using a plate reader. IC50 value of each compound was determined using GraphPad Prism.

[1] = tested on: HCT116 colon cancer cells; test: MTT viability assay against HCT-116 cells; format: cell-based, human
Description: (§1) The KAC compounds were evaluated for antiproliferative effect against HCT-116 and MCF7 cell lines using the MTT viability assay and to calculate the relative IC50 values for each compound. Cells were seeded in triplicate in 96-well plates at a density of 10×10^3 cells/mL in a total volume of 100 μL per well and allowed to adhere overnight. Cells were treated with various concentrations of tested KAC compounds or 0.1% of DMSO (vehicle) for 27 h. Then the medium was discarded and 100 μL per well of MTT (5 mg/mL in PBS) containing medium was added. After incubation at 37° C. for 3 h, the MTT-containing medium was replaced by DMSO (100 μL per well) to dissolve the formazon crystal and incubated for 10 min. Absorbance of the solution was measured by microplate reader at […]. The IC50 values were calculated according to the dose-dependent curves using GraphPad prism, version 5.0. All the experiments were repeated in at least three independent experiments.

HL-60 leukemia cells = test: CellTiter-Blue cell viability assay against HL-60 cells; format: cell-based; conditions: Homo sapiens, HL-60, 48 h, leukemia cells HL60, CellTiter-Blue
Description: HL-60 cells were purchased from CLS Cell Line Service GmbH (Eppelheim, Germany) and cultured in Roswell Park Memorial Institute-1640 medium (RPMI-1640; Thermo Fisher Scientific, Inc; Waltham, Mass., USA) supplemented with 10% fetal bovine serum (FBS; Thermo Fisher Scientific) and ciprofloxacin (10 μg/ml; Cipla Limited; Mumbai, India), at 37° C. with 5% CO2 in a humidified incubator.
The CellTiter®-Blue Cell Viability assay was acquired from Promega Corporation (Madison, Wis., USA). Cell viability assay was performed as follows. The cells (10^4/well) were incubated with KAC-12 at a concentration gradient ranging from 0.01 to 100 μM, in 96-well plates for 48 h at 37° C. Subsequently, 20 μL of CellTiter®-Blue Cell Viability reagent was added to each well and incubated for an additional 2 h for the development of fluorescence. The fluorescence emission was measured at 590 nm using the SpectraMax® i3x Multi-Mode microplate reader (Molecular Devices, LLC; San Jose, Calif., USA.) and plotted against drug concentrations to determine the mean inhibitory concentration of KAC-12 producing 50% decrease in cell viability (IC50).

HCT-116 cells = test: Cell cycle analysis of HCT-116 cells (propidium iodide flow cytometry); format: cell-based, human; conditions: for cell cycle effect: HCT-116, 24 and 48 hours; for apoptosis: HCT-116, positive controls at 1 μM; for apoptosis / cells in G2/M phase / apoptosis, population in the sub-G1 phase: 48 h; for percentage of cells in G2/M phase: 24 h, control 9.0%; for apoptosis, population in the sub-G1 phase: control 0.9%
Description: Flow cytometric analysis was used to determine DNA level in any given cell that has been stained with propidium iodide (PI). PI is a fluorescent DNA intercalating agent which binds stoichiometrically to nucleic acid. When bounded to DNA, its fluorescence intensity increases 20 fold (excitation 488 nm and emission 600 nm). As cells pass singly through a beam of light their cell cycle state is analyzed. The fluorescent intensity of DNA-bound PI correlates to the DNA content of the cell. This allows the cell population in G1 phase (diploid −2n), G2M phase (4n), or S phase (2n-4n) to be differentiated by plotting a histogram of the PI fluorescence versus cell counts (linear scale). G1 and G2M can be seen as distinct peaks, with the S phase shown as the population between these two peaks. Apoptotic cells are hypo-diploid (pre-G1) and have a low PI fluorescence due to DNA fragmentation [Riccardi, C.; Nicoletti, I., Analysis of apoptosis by propidium iodide staining and flow cytometry. Nature protocols 2006, 1 (3), 1458-1461].
To study cell cycle stage, adherent and detached cells were collected by trypsinization and centrifuged at 800×g for 15 min. Cells were washed twice with ice-cold PBS and fixed with slow addition of ice-cold 70% ethanol overnight at −20° C. Fixed cells were centrifuged at 800×g for 15 min and the pellet was re-suspended in 400 μL PBS and transferred to LP5 FACS tubes then stained with 50 μg/mL of PI, containing 50 μg/mL of DNase-free RNase A (to degraded any double strand RNA present), at 37° C. for 30 min. The DNA content of cells (10,000 cells/experimental group) was analyzed by flow cytometer at 488 nm using a FACSCalibur flow cytometer (BD Biosciences, San Jose, Calif.).
In general, G2/M cell cycle arrest is strongly associated with inhibition of tubulin polymerization. The effect of KX-01 analogue, KAC-3, was investigated with colon cancer HCT-116 cells by flow cytometry at two concentrations (5 μM and 10 μM) for 24 and 48 hours. […] The percentage of cells in G2/M phase after 24 h was 13.3% and 41.7% at concentrations of 5 μM and 10 μM, respectively compared to the control (9.0%) (see FIG. 9). […] The cell cycle analysis results for KAC-3 are typical for tubulin targeting agents, which characteristically cause G2/M blockade followed by apoptosis [Perez, E. A., Microtubule inhibitors: Differentiating tubulin-inhibiting agents based on mechanisms of action, clinical activity, and resistance. Molecular cancer therapeutics 2009, 8 (8), 2086-2095]. […] Cancer research and treatment: official journal of Korean Cancer Association 2017, 49 (3), 643-655; and Anbalagan, M.; Carrier, L.; Glodowski, S.; Hangauer, D.; Shan, B.; Rowan, B. G., KX-01, a novel Src kinase inhibitor directed toward the peptide substrate site, synergizes with tamoxifen in estrogen receptor a positive breast cancer. Breast cancer research and treatment 2012, 132 (2), 391-409]. […] Frontiers in pharmacology 2017, 8, 244].

[2] = tested on: MDA-MB-231 and BT-549 and MDA-MB-468 cells; conditions: MDA-MB-231, BT-549, MDA-MB-468 cells; literature; cited from earlier work
MCF7 breast cancer cells = test: MTT viability assay against MCF7 cells; format: cell-based, human
Description: as §1

Row | SMILES | IC50 ([1]; Homo sapiens, HCT-116, 27 h) [µM] | IC50 (MCF7 breast cancer cells; Homo sapiens, MCF7, 27 h) [µM] | IC50 (N87 stomach cancer cells; Homo sapiens, 96 h) [µM] | other results
1 | CC(=O)O[C@H]1C(=O)[C@@]2(C)[C@H]([C@H](OC(=O)c3ccccc3)[C@]3(O)C[C@H](OC(=O)[C@H](O)[C@@H](NC(=O)c4ccccc4)c4ccccc4)C(C)=C1C3(C)C)[C@]1(OC(C)=O)CO[C@@H]1C[C@@H]2O [Paclitaxel, reference compound] | – | – | – | cell cycle effect (HCT-116 cells): no significant difference in the other cell cycle phases; apoptosis (HCT-116 cells): 7.7%
2 | O=C(Cc1ccc(-c2ccc(OCCN3CCOCC3)cc2)cn1)NCc1ccccc1 [KX-01] | – | – | – | cell cycle effect [2]: induced significant G2M phase arrest
3 | O=C(Cc1ccc(NC(=O)c2ccccc2C(=O)N2CCCCC2)cc1)NCc1ccccc1 [KAC-02, N-(4-(2-(benzylamino)-2-oxoethyl)phenyl)-2-(piperidine-1-carbonyl)benzamide] | – | 9.48 | – | –
4 | O=C(Cc1ccc(NC(=O)c2ccccc2C(=O)N2CCOCC2)cc1)NCc1ccccc1 [KAC-03, N-(4-(2-(benzylamino)-2-oxoethyl)phenyl)-2-(morpholine-4-carbonyl)benzamide] | 4.8 | 3.5 | 18.2 | IC50 ([1]; 27 h): 4.76 µM; percentage of cells in G2/M phase (HCT-116 cells; HCT-116, 5 μM): 13.3%; cells in G2/M phase (HCT-116 cells; HCT-116, 5 μM): 30.7%; apoptosis, population in the sub-G1 phase (HCT-116 cells; HCT-116, 5 μM): 8.7%; percentage of cells in G2/M phase (HCT-116 cells; HCT-116, 10 μM): 41.7%; cells in G2/M phase (HCT-116 cells; HCT-116, 10 μM): 32.8%; apoptosis, population in the sub-G1 phase (HCT-116 cells; HCT-116, 10 μM): 11.6%; cell cycle effect (HCT-116 cells): significant G2/M arrest in a time- and concentration-dependent manner
5 | CCN(CC)C(=O)c1ccccc1C(=O)Nc1ccc(CC(=O)NCc2ccccc2)cc1 [KAC-04, N^1-(4-(2-(benzylamino)-2-oxoethyl)phenyl)-N^2,N^2-diethylphthalamide] | – | > 50 | > 50 | –
6 | CC(=O)Nc1ccc(CC(=O)NCc2ccccc2)cc1 [KAC-01, 2-(4-acetamidophenyl)-N-benzylacetamide] | 18.8 | 29.3 | > 50 | IC50 ([1]; 27 h): 18.8 µM
7 | Cc1ccc(NC(=O)c2ccc(CN3CCN(C)CC3)cc2)cc1Nc1nccc(-c2cccnc2)n1 [imatinib, reference compound] | – | – | – | cell cycle effect (HCT-116 cells): no significant difference in the other cell cycle phases; apoptosis (HCT-116 cells): 6.4%
8 | O=C(Cc1ccc(NC(=O)c2ccccc2-c2ccccc2C(=O)N2CCCCC2)cc1)NCc1ccccc1 [KAC-05, N-(4-(2-(benzylamino)-2-oxoethyl)phenyl)-2′-(piperidine-1-carbonyl)-[1,1′-biphenyl]-2-carboxamide] | > 50 | 44.2 | – | –

Second part, led by results:

Row | IC50 ([1]; Homo sapiens, HCT-116, 27 h) [µM] | IC50 (MCF7 breast cancer cells; Homo sapiens, MCF7, 27 h) [µM] | SMILES | IC50 (N87 stomach cancer cells; Homo sapiens, 96 h) [µM] | other results
9 | > 50 | – | Nc1ccc(CC(=O)NCc2ccccc2)cc1 [KAC-14, 2-(4-aminophenyl)-N-benzylacetamide] | > 50 | IC50 HCT116 ([1]; 27 h): did not affect any of the tested cell lines; IC50 (HL-60 leukemia cells): > 50 µM
10 | 30.6 | 34.9 | O=C(Cc1ccc(NC(=O)c2ccccc2-c2ccccc2C(=O)N2CCOCC2)cc1)NCc1ccccc1 [KAC-06, N-(4-(2-(benzylamino)-2-oxoethyl)phenyl)-2′-(morpholine-4-carbonyl)-[1,1′-biphenyl]-2-carboxamide] | > 50 | –
11 | 22.7 | – | Cc1ccc(S(=O)(=O)Nc2ccc(CC(=O)NCc3ccccc3)cc2)cc1 [KAC-10, N-benzyl-2-(4-((4-methylphenyl)sulfonamido)phenyl)acetamide] | – | –
12 | 25.9 | – | O=C(Cc1ccc(NC(=O)c2cccc(Cl)c2)cc1)NCCc1ccccc1 [KAC-17, 3-Chloro-N-(4-(2-oxo-2-(phenethylamino)ethyl)phenyl)benzamide] | – | –
13 | > 50 | – | O=C(Cc1ccc(NC(=O)c2cccc(Cl)c2)cc1)NCc1ccc(F)cc1 [KAC-16, 3-Chloro-N-(4-(2-((4-fluorobenzyl)amino)-2-oxoethyl)phenyl)benzamide] | – | –
14 | > 50 | 37 | CCC(=O)Nc1ccc(CC(=O)NCc2ccccc2)cc1 [KAC-09, N-(4-(2-(benzylamino)-2-oxoethyl)phenyl)propionamide] | 7.2 | IC50 (N87 stomach cancer cells; 96 hours): 7.24 µM; IC50 (MCF7 breast cancer cells; 27 h): 37 µM
15 | 19.7 | 2.6 | O=C(Cc1ccc(NC(=O)c2ccccc2)cc1)NCc1ccccc1 [KAC-08, N-(4-(2-(benzylamino)-2-oxoethyl)phenyl)benzamide] | > 50 | IC50 N87 (N87 stomach cancer cells; 96 hours): much weaker; IC50 (MCF7 breast cancer cells; 27 h): 2.63 µM; IC50 ([1]; 27 h): 19.7 µM
16 | 23.9 | – | O=C(Cc1ccc(NC(=O)c2cccc(Cl)c2)cc1)NCc1ccco1 [KAC-18, 3-Chloro-N-(4-(2-((furan-2-ylmethyl)amino)-2-oxoethyl)phenyl)benzamide] | – | –
17 | > 50 | – | COc1ccc(CNC(=O)Cc2ccc(NC(=O)c3cccc(Cl)c3)cc2)cc1 [KAC-15, 3-Chloro-N-(4-(2-((4-methoxybenzyl)amino)-2-oxoethyl)phenyl)benzamide] | – | –
18 | – | > 50 | CCN(CC)C(=O)c1ccccc1-c1ccccc1C(=O)Nc1ccc(CC(=O)NCc2ccccc2)cc1 [KAC-07, N^2-(4-(2-(benzylamino)-2-oxoethyl)phenyl)-N^2′,N^2′-diethyl-[1,1′-biphenyl]-2,2′-dicarboxamide] | > 50 | –
